Test results from US20040230057A1, “Dye for optical recording medium” (priority 2003, published 2004).

How the values were obtained:
[1] = thermal gravimetric analysis; format: physicochemical; conditions: for Thermal Breakdown Temperature: temperature of a 5% thermal weight loss; for temperature of sudden weight loss (thermal breakdown temperature): thermal gravimetric analysis
Description: (§1) The results of the thermal gravametric analysis and the ultraviolent-visible absorption spectroscopy of the optical recording medium dyes obtained in the above experiment 1 to experiment 8 are summarized in Table 1. The thermal gravametric analysis and the ultraviolent-visible absorption spectroscopy detect, respectively, the thermal breakdown temperature (the temperature of a 5% thermal weight loss) and the optical property (the largest absorption wavelength, absorption coefficient of the solution). […] Further, the thermal breakdown temperatures are above 250 degrees Celsius. Accordingly, the optical recording medium dyes of the present invention comprises a broad wavelength range and has favorable thermal stability and solubility.

[2] = UV-visible absorption spectroscopy; format: physicochemical; conditions: for absorption wavelength: UV-visible absorption spectrum; for Maximum Absorption Wavelength: methanol
Description: as §1

Thermal Breakdown Temperature [1] | temperature of sudden weight loss (thermal breakdown temperature) [1] | absorption wavelength [2] | Maximum Absorption Wavelength [2] | SMILES
309.5 °C | about 309.5 degrees Celsius | 548.2 nm | 548.2 nm | CCCC[n+]1c(C=CC=C2N(C)c3ccc([N+](=O)[O-])cc3C2(C)C)ccc2ccccc21 [Experiment 4]
266.3 °C | about 266.3 degrees Celsius | 598.4 nm | 598.4 nm | CCCCN1C(=CC=Cc2cc[n+](CC)c3ccccc23)C(C)(C)c2cc(Cl)ccc21 [Experiment 5]
302.7 °C | about 302.7 degrees Celsius | 570.0 nm | 570.0 nm | CC[n+]1ccc(C=CC=C2N(C)c3ccc([N+](=O)[O-])cc3C2(C)C)c2ccccc21 [Experiment 6]

The next lines start with the compound.

SMILES | Thermal Breakdown Temperature [1] | temperature of sudden weight loss (thermal breakdown temperature) [1] | absorption wavelength [2] | Maximum Absorption Wavelength [2]
CCCCN1C(=CC=Cc2ccc3ccccc3[n+]2CCCC)C(C)(C)c2cc(Cl)ccc21 [Experiment 1] | 280.2 °C | about 280.2 degrees Celsius | 561.8 nm | 561.8 nm
CCCCN1C(=CC=Cc2ccc3ccccc3[n+]2CCCC)C(C)(C)c2c1ccc1ccccc21 [Experiment 2] | 268.6 °C | about 268.6 degrees Celsius | 583.0 nm | 583.0 nm
CCCCN1C(=CC=Cc2ccc3ccccc3[n+]2CCCC)C(C)(C)c2c1ccc1ccccc21 [Experiment 3] | 274.2 °C | about 274.2 degrees Celsius | 583.0 nm | 583.0 nm
CCCCN1C(=CC=Cc2cc[n+](CC)c3ccccc23)C(C)(C)c2c1ccc1ccccc21 [Experiment 7] | 270.7 °C | about 270.7 degrees Celsius | 625 nm | 625.0 nm
